Test results reported in patent publication US20150141478A1, “SERIES OF DRUGS USING PHOTOFRIN TO CATALYZE DECOMPOSITION OF HYDROGEN PEROXIDE” (Wuxi Zhaozhen Radiation Technology Co., Ltd., priority 2012, published 2015).

Key:
[1] = system: plaques in thoracic aorta; conditions: 5-ALA 80 mg/kg i.p., then i.v. substrate (carbamide peroxide), 5Gy once, 7th day after therapy
Protocol: (1) Male New Zealand rabbits, bodyweight 3-4 kg, were fed with diet containing 1% cholesterol and pork fat, raised for 11 weeks, until atherosclerotic plaques occurred at vessels of eye ground at both sides and artery.
(2) The rabbits were anesthetized with ketamine and thiopental sodium.
(3) Target regions of plaques at artery to be treated were determined by total body CT plain scanning and CTA enhancing.
(4) Target regions of plaques at artery to be treated were sketched by a therapy planning system, to formulate a therapeutical plan suitable for RCDT, using GTV dose of up to 5.0Gy, irradiated once. Normal feeding was restored during the procedure.
(5) It was 2 h before the irradiation that 5-ALA (80 mg/kg in saline 5 ml) was intraperitoneally injected, carbamide peroxide (injection containing H2O2, 80 mg/kg) in 5 ml of saline was slowly injected via ear vein immediately before the irradiation, and the therapeutical plan was carried out immediately after the injection of carbamide peroxide.
(6) It was 5-7 days after irradiation the CTA was reexamined, and the situations of elimination of vascular plaques were recorded.
The plaques are used as target regions, positioned, and radiotherapy plan is formulated. It is 1.5 h after intraperitoneal injection of 5-ALA (80 mg/kg of body weight) that a substrate is intravenously dripped, the vascular plaques are irradiated with 5Gy once. […]

[2] = Suppression of the decomposition of H2O2 catalysed by haematoporphyrin and .OH, using .OH scavengers; conditions: 1.5% H2O2, 20% DMSO, 15% ethanol, 5% mannitol
Protocol: (4) 15 uM Haematoporphyrin derivative (HPD) was added, or 15 uM acidified porphyrin (Protoporphyrin IX, PpIX) was added.
(5) The vacuum bottles were irradiated with 10 MeV X-ray for about 1 min, dose of 5Gy, to start the decomposition reaction of H2O2. The reaction was terminated by stopping irradiation.

[3] = Decomposition of H2O2 catalysed by photofrin alone under weak alkali, 1O2 measured by DMA fluorescence; conditions: 15 uM, H2O2 lower than or equal to 0.15%, 25° C., 8 h, no activation
Protocol: (1) 10 ml vacuum bottles were used, and the vacuum bottles were totally sealed with Kodak photographic film light protecting paper.
(2) H2O2 solutions (in DMF: H2O=1:5) with different concentrations were added to the sealed vacuum bottles.
(3) 5 uM 9,10-dimethylanthracene (DMA) was added. DMA was a kind of ^1O2 specific indicator (probe), DMA had intensive fluorescence property, after binding to ^1O2, endorperoxide without fluorescence property was formed, so that the amount of the generated ^1O2 is in inverse proportion with the content of DMA.
(4) 15 uM Haematoporphyrin derivative was added, and reacted at 25° C. for 8 h.

| Compound | inhibition of 1O2 yield [2] | also measured |
| --- | --- | --- |
| NCC(=O)CCC(=O)O [5-ALA] | – | plaques in thoracic aorta by CTA visualization and MR [1]: completely disappeared |
| C[S+](C)[O-] [DMSO] | 75.1% | – |
| CCO [ethanol] | 43.0% | – |
| OC[C@@H](O)[C@@H](O)[C@H](O)[C@H](O)CO [mannitol] | 17.7% | – |
| Haematoporphyrin derivative | – | catalysis of the decomposition reaction of H2O2 to generate 1O2 [3]: cannot be catalyzed |
